Results reported in patent US20170022201A1, “MACROCYLIC PYRIDINE DERIVATIVES” (Janssen Pharmaceutica NV, priority 2014, published 2017).

molecular target: T1, eEF2K (Homo sapiens, UniProt O00418); experiment: EF2K cell-based assay (P-EF2 AlphaLISA, 2-deoxyglucose stimulated MCF10A cells); details: 2.5 mM 2-deoxyglucose 4 h, phosphorylation of EF2 at Thr 56, pIC50 = -log IC50 (M), read-out: eEF2K_C_PThr56 pIC50 (converted)
T1 construct: in the immortalized epithelial breast cell lines, MCF10A; host or cells: MCF10A immortalized breast epithelial cells
T1 sequence (O00418 1-725): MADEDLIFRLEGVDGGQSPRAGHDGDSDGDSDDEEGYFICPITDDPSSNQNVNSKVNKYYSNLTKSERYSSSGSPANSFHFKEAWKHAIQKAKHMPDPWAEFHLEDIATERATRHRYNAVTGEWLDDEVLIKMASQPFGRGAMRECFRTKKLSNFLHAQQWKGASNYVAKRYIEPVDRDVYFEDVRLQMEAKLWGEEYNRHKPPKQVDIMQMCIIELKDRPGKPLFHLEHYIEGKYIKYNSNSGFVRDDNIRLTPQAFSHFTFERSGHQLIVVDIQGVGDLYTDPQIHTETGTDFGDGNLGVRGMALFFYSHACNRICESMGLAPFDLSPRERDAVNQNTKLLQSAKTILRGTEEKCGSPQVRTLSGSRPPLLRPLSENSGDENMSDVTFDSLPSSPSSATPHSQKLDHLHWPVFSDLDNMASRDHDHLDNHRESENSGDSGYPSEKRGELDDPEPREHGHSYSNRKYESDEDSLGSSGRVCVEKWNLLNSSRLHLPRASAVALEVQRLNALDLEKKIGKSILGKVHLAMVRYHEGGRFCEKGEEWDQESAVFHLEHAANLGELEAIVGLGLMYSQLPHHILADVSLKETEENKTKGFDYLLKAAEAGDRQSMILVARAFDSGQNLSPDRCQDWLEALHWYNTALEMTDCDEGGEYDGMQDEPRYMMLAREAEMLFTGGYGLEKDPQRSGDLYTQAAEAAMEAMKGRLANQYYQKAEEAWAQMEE
Protocol: In this assay, 2.5 mM 2-deoxyglucose was used to deplete intracellular ATP and activate 5′ adenosine monophosphate-activated protein kinase (AMPK) in the immortalized epithelial breast cell lines, MCF10A. MCF 10A cells were purchased from ATCC (CRL-10317).
MCF10A cells are seeded at a density of 1.25×10^5 Cells/ml at 100 μl/well in a 96-well plate and incubated for 24 hours (37° C., 5% CO2). Compound is added for 1 hour, and cell are stimulated with 2.5 mM of 2-deoxy-glucose for 4 hours. Medium is then removed, and cells are lysed in an ice-cold buffer M-PER (Thermo Scientific, 78501), containing protease and phosphatase inhibitors. P-EF2 levels are determined in these lysates using the P-EF2 AlphaLISA described above.

Row | SMILES | IC50
1 | CNC(=O)c1ccc2cc1CN1CCN(CC1)CC(=O)NCCCNc1ncc(cn1)-c1ccnc(c1)N2 [Compound 9] | ~5.5e-06 M
2 | O=C1NCCCNc2ncc(cn2)-c2ccnc(c2)Nc2cccc(c2)CN2CCN(CC2)C12COC2 [Compound 10] | 1.48e-06 M
3 | CN1CCCNc2ncc(cn2)-c2ccnc(c2)Nc2cccc(c2)CN2CCN(CC2)CC1=O [Compound 13] | 9.12e-06 M
4 | CN1CCCN(CCCO)c2ncc(cn2)-c2ccnc(c2)Nc2cccc(c2)CN2CCN(CC2)CC1=O [Compound 16] | > 3.02e-05 M
5 | CN1CCN(CCCO)c2ncc(cn2)-c2ccnc(c2)Nc2cccc(c2)CN2CCN(CC2)CC1=O [Compound 17] | > 3.02e-05 M
6 | CC1(C)CN2CCN1CC(=O)NCCCNc1ncc(cn1)-c1ccnc(c1)Nc1cccc(c1)C2 [Compound 18] | 1.05e-06 M
7 | CC1(C)CN2CCN1Cc1cccc(c1)Nc1cc(ccn1)-c1cnc(nc1)NCCCNC(=O)C2 [Compound 19] | 7.08e-07 M
8 | O=C1CN2CCN(Cc3cccc(c3)Nc3cc(ccn3)-c3cnc(nc3)NCCCN1)C1(CC1)C2 [Compound 27] | ~1.23e-06 M

The remaining lines, values ahead:

Row | IC50 | SMILES
9 | > 1e-05 M | O=C1CN2CCN(Cc3cccc(c3)Nc3cc(ccn3)-c3cnc(nc3)NCCCN1)CC21CC1 [Compound 28]
10 | ~7.94e-07 M | O=C1CN2CCN(CC2)Cc2cccc(c2)Nc2cc(ccn2)-c2cnc(nc2)NCCCN1 [Compound 33]
11 | ~2.63e-06 M | CC1CN2CC(=O)NCCCNc3ncc(cn3)-c3ccnc(c3)Nc3cccc(c3)CN1C(C)C2 (centres unmarked) [Compound 34]
12 | 2.45e-07 M | CC1CN2Cc3cccc(c3)Nc3cc(ccn3)-c3cnc(nc3)NCCCNC(=O)CN1CC2C (centres unmarked) [Compound 35]
13 | 9.77e-07 M | CC1CN2CCN1Cc1cccc(c1)Nc1cc(ccn1)-c1cnc(nc1)NCCCNC(=O)C2 (centres unmarked) [Compound 36]
14 | > 3.02e-05 M | O=C1CN2CCN(CC2)Cc2cccc(c2)Nc2cc(ccn2)-c2ccc(nn2)NCCCN1 [Compound 37]
15 | > 3.02e-05 M | CN1CCCN(C)c2ncc(cn2)-c2ccnc(c2)Nc2cccc(c2)CN2CCN(CC2)CC1=O [Compound 38]

molecular target: PIK3C3 lipid kinase (Homo sapiens, UniProt Q8NEB9); experiment: Biochemical Vps34 lipid kinase assay (ADP-Glo); details: 1 h, single dose 1 μM; residual activity compared to control (DMSO); 20 μM ATP; read-out: VPS34_1microM_%ofcntrl
Protocol: A non-radiometric kinase assay (ADP-Glo™ Assay, Promega, Madison, Wi, USA) was used for measuring the kinase activity of the PIK3C3 lipid kinase. All kinase assays were performed in 96-well half-area microtiter plates in a 25 μl reaction volume. The reaction cocktail was pipetted in 3 steps in the following order: • 10 μl of ATP solution (in assay buffer, see below) • 5 μl of test sample in 5% DMSO 10 μl of enzyme/substrate mixture
All lipid kinase assays contained 50 mM HEPES (4-(2-hydroxyethyl)-1-piperazineethanesulfonic acid)—NaOH, pH 7.5, 1 mM EGTA ((ethylene glycol tetraacetic acid), 100 mM NaCl, 0.03% CHAPS (3-[(3-Cholamidopropyl) dimethylammonio]-1-propanesulfonate), 2 mM DTT (Dithiothreitol), 20 μM ATP (corresponding to the apparent ATP-Km), kinase (7.6 nM) and substrate (50 μM). The assay for PIK3C3 additionally contained 3 mM MnCl2.
The reaction cocktails were incubated at 30° C. for 60 minutes. The reaction was stopped with 25 μl ADP-Glo™ reagent per well. Plates were incubated for 40 minutes at room temperature, followed by addition of 50 μl kinase detection reagent per well and incubation for 60 minutes at room temperature. Signal was determined with a microplate luminescence reader (Victor, Perkin Elmer). The assay was either performed using a single dose of compound (1 μM final concentration in the assay reaction) with resulting data expressed as residual activity compared to control (DMSO), or using a serial (half-log) dilution of compounds starting at 10 μM and down to 0.3 nM (final concentrations in the assay) with data expressed as the pIC50.

Chain of PIK3C3 lipid kinase (Q8NEB9 whole entry): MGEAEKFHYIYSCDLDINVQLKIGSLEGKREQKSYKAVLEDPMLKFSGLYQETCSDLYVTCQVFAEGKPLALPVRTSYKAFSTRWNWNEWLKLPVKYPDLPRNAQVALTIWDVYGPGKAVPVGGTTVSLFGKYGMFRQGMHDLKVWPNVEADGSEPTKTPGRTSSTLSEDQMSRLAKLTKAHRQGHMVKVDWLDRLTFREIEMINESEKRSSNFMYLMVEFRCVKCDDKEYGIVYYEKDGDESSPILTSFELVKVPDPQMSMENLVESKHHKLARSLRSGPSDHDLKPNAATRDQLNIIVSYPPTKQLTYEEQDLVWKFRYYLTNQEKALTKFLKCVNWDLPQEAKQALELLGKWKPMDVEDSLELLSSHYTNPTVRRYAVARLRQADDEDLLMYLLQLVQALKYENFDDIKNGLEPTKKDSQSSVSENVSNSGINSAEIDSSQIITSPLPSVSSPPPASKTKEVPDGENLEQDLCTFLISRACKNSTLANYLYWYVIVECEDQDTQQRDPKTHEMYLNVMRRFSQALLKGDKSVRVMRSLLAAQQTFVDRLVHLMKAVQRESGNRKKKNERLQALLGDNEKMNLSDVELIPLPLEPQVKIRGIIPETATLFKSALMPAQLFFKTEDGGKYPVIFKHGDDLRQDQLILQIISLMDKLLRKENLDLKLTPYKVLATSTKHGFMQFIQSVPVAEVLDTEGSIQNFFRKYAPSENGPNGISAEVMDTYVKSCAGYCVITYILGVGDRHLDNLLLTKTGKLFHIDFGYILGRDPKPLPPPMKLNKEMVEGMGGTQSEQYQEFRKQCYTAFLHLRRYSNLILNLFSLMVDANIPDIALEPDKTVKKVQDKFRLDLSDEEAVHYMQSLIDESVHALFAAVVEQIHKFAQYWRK

Row | SMILES | remaining activity at 1 µM
16 | CNC(=O)c1ccc2cc1CN1CCN(CC1)CC(=O)NCCCNc1ncc(cn1)-c1ccnc(c1)N2 [Compound 9] | 7.1%
17 | O=C1NCCCNc2ncc(cn2)-c2ccnc(c2)Nc2cccc(c2)CN2CCN(CC2)C12COC2 [Compound 10] | 18.6%
18 | CN1CCCNc2ncc(cn2)-c2ccnc(c2)Nc2cccc(c2)CN2CCN(CC2)CC1=O [Compound 13] | 34.9%
19 | CN1CCCN(CCCO)c2ncc(cn2)-c2ccnc(c2)Nc2cccc(c2)CN2CCN(CC2)CC1=O [Compound 16] | 46.1%
20 | CN1CCN(CCCO)c2ncc(cn2)-c2ccnc(c2)Nc2cccc(c2)CN2CCN(CC2)CC1=O [Compound 17] | 62.4%
21 | CC1(C)CN2CCN1CC(=O)NCCCNc1ncc(cn1)-c1ccnc(c1)Nc1cccc(c1)C2 [Compound 18] | 8.79%

Other lines, results leading:

Row | remaining activity at 1 µM | SMILES
22 | 23.5% | CC1CN2CC(=O)NCCCNc3ncc(cn3)-c3ccnc(c3)Nc3cccc(c3)CN1C(C)C2 (centres unmarked) [Compound 34]
23 | 20.9% | CC1CN2Cc3cccc(c3)Nc3cc(ccn3)-c3cnc(nc3)NCCCNC(=O)CN1CC2C (centres unmarked) [Compound 35]
24 | 84.5% | O=C1CN2CCN(CC2)Cc2cccc(c2)Nc2cc(ccn2)-c2ccc(nn2)NCCCN1 [Compound 37]
25 | 43.3% | CN1CCCN(C)c2ncc(cn2)-c2ccnc(c2)Nc2cccc(c2)CN2CCN(CC2)CC1=O [Compound 38]

same assay, conditions: serial dilution 10 μM to 0.3 nM; 20 μM ATP; pIC50 = -log IC50 (M)

Row | SMILES | IC50
26 | CNC(=O)c1ccc2cc1CN1CCN(CC1)CC(=O)NCCCNc1ncc(cn1)-c1ccnc(c1)N2 [Compound 9] | 1.66e-07 M
27 | O=C1NCCCNc2ncc(cn2)-c2ccnc(c2)Nc2cccc(c2)CN2CCN(CC2)C12COC2 [Compound 10] | 4.57e-07 M
28 | CC1(C)CN2CCN1CC(=O)NCCCNc1ncc(cn1)-c1ccnc(c1)Nc1cccc(c1)C2 [Compound 18] | 1.74e-07 M
29 | CC1(C)CN2CCN1Cc1cccc(c1)Nc1cc(ccn1)-c1cnc(nc1)NCCCNC(=O)C2 [Compound 19] | 2.88e-07 M
30 | O=C1CN2CCN(Cc3cccc(c3)Nc3cc(ccn3)-c3cnc(nc3)NCCCN1)C1(CC1)C2 [Compound 27] | 2.57e-08 M

Continued, values first:

Row | IC50 | SMILES
31 | > 1e-05 M | O=C1CN2CCN(Cc3cccc(c3)Nc3cc(ccn3)-c3cnc(nc3)NCCCN1)CC21CC1 [Compound 28]
32 | 2.19e-07 M | O=C1CN2CCN(CC2)Cc2cccc(c2)Nc2cc(ccn2)-c2cnc(nc2)NCCCN1 [Compound 33]
33 | 3.63e-07 M | CC1CN2CC(=O)NCCCNc3ncc(cn3)-c3ccnc(c3)Nc3cccc(c3)CN1C(C)C2 (centres unmarked) [Compound 34]
34 | 2.95e-07 M | CC1CN2Cc3cccc(c3)Nc3cc(ccn3)-c3cnc(nc3)NCCCNC(=O)CN1CC2C (centres unmarked) [Compound 35]
35 | 7.24e-07 M | CC1CN2CCN1Cc1cccc(c1)Nc1cc(ccn1)-c1cnc(nc1)NCCCNC(=O)C2 (centres unmarked) [Compound 36]

molecular target: T2, EF2K (Homo sapiens, UniProt O00418); experiment: Biochemical EF2K lysate-based kinase assay (AlphaLISA p-eEF2 Thr56); details: LN-229 cell lysates, 10 mM ATP, pH 6.6; pIC50 = -log IC50 (M); read-out: eEF2K_C_alphalisa pIC50 (converted)
T2 construct: host or cells: LN-229 glioblastoma cell lysate
T2 sequence (O00418 1-725): T1 sequence (O00418 1-725)
From the text: LN-229 cells were purchased from ATCC (CRL-2611); these are glioblastoma cells. Cell lysates from LN229 were used in this kinase assay to provide both the kinase and the substrate (EF2). The AlphaLISA p-eEF2 (Thr56) detection assay was developed using a sandwich assay format with two specific antibodies recognizing different epitopes of the target, including one antibody against the phosphorylation site of interest. One anti-eEF2 antibody was conjugated onto AlphaLISA Acceptor beads, while the second antibody was biotinylated and captured by streptavidin coated Donor beads.
Compound was mixed with LN-229 cell lysates in the presence of a kinase buffer (e.g. HEPES) at a pH of 6.6, containing 10 mM Mg^2+ (e.g. magnesium acetate) and 10 mM adenosine-tri-phosphate (ATP) and incubated at room temperature for 15 minutes. The kinase reaction was stopped with excess ethylenediaminetetraacetic acid disodium salt and the biotinylated-anti phospho eEF2 antibody (3 nM) was added for 1 hour. Then the anti-EF2 acceptor beads (10 μg/ml) as well as the streptavidin coated donor beads (20 μg/ml) were added for 1 hour, and the AlphaLISA signal was measured in an Envision instrument once, left overnight, and measured again for the final read.

Row | SMILES | IC50
36 | CNC(=O)c1ccc2cc1CN1CCN(CC1)CC(=O)NCCCNc1ncc(cn1)-c1ccnc(c1)N2 [Compound 9] | 3.47e-08 M
37 | O=C1NCCCNc2ncc(cn2)-c2ccnc(c2)Nc2cccc(c2)CN2CCN(CC2)C12COC2 [Compound 10] | 2.19e-08 M
38 | CN1CCCNc2ncc(cn2)-c2ccnc(c2)Nc2cccc(c2)CN2CCN(CC2)CC1=O [Compound 13] | 6.46e-07 M
39 | CN1CCCN(CCCO)c2ncc(cn2)-c2ccnc(c2)Nc2cccc(c2)CN2CCN(CC2)CC1=O [Compound 16] | > 3.02e-05 M
40 | CN1CCN(CCCO)c2ncc(cn2)-c2ccnc(c2)Nc2cccc(c2)CN2CCN(CC2)CC1=O [Compound 17] | > 3.02e-05 M
41 | CC1(C)CN2CCN1CC(=O)NCCCNc1ncc(cn1)-c1ccnc(c1)Nc1cccc(c1)C2 [Compound 18] | 8.71e-08 M
42 | CC1(C)CN2CCN1Cc1cccc(c1)Nc1cc(ccn1)-c1cnc(nc1)NCCCNC(=O)C2 [Compound 19] | 3.39e-08 M
43 | O=C1CN2CCN(Cc3cccc(c3)Nc3cc(ccn3)-c3cnc(nc3)NCCCN1)C1(CC1)C2 [Compound 27] | 1.07e-08 M

Further lines, results first:

Row | IC50 | SMILES
44 | 2.24e-05 M | O=C1CN2CCN(Cc3cccc(c3)Nc3cc(ccn3)-c3cnc(nc3)NCCCN1)CC21CC1 [Compound 28]
45 | ~2.19e-08 M | O=C1CN2CCN(CC2)Cc2cccc(c2)Nc2cc(ccn2)-c2cnc(nc2)NCCCN1 [Compound 33]
46 | 3.31e-07 M | CC1CN2CC(=O)NCCCNc3ncc(cn3)-c3ccnc(c3)Nc3cccc(c3)CN1C(C)C2 (centres unmarked) [Compound 34]
47 | 6.46e-08 M | CC1CN2Cc3cccc(c3)Nc3cc(ccn3)-c3cnc(nc3)NCCCNC(=O)CN1CC2C (centres unmarked) [Compound 35]
48 | 1.62e-08 M | CC1CN2CCN1Cc1cccc(c1)Nc1cc(ccn1)-c1cnc(nc1)NCCCNC(=O)C2 (centres unmarked) [Compound 36]
49 | ~2.45e-05 M | O=C1CN2CCN(CC2)Cc2cccc(c2)Nc2cc(ccn2)-c2ccc(nn2)NCCCN1 [Compound 37]
50 | 8.51e-08 M | CN1CCCN(C)c2ncc(cn2)-c2ccnc(c2)Nc2cccc(c2)CN2CCN(CC2)CC1=O [Compound 38]
